± gives the expanded uncertainty stated by the source.
Conditions: 101.33 kPa, Liquid; for viscosity: Capillary tube (Ostwald / Ubbelohde) method; for speed of sound: Sing-around technique in a fixed-path interferometer; for mass density: Vibrating tube method

Row | viscosity (283.15 K) | speed of sound (283.15 K) | mass density (283.15 K) | viscosity (298.15 K) | speed of sound (298.15 K) | mass density (298.15 K) | viscosity (313.15 K) | speed of sound (313.15 K) | mass density (313.15 K) | SMILES
1 | 2.693 ± 0.023 mPa·s | 872.3 ± 1.2 m/s | 1407.89 ± 0.21 kg/m3 | 1.755 ± 0.017 mPa·s | 826.7 ± 1.1 m/s | 1382.44 ± 0.2 kg/m3 | 1.208 ± 0.012 mPa·s | 791.7 ± 1.1 m/s | 1356.91 ± 0.19 kg/m3 | OCC(F)(F)F [2,2,2-trifluoroethanol]
2 | 1.005 ± 0.0098 mPa·s | 1335.8 ± 1.6 m/s | 894.08 ± 0.46 kg/m3 | 0.8005 ± 0.0081 mPa·s | 1255 ± 1.6 m/s | 879.18 ± 0.45 kg/m3 | 0.6494 ± 0.0067 mPa·s | 1199.8 ± 1.6 m/s | 864.37 ± 0.45 kg/m3 | C1CCOCC1 [tetrahydropyran]

Source: the NIST ThermoML archive (doi:10.1021/je025655p)
